Here are results for 7 compounds from publication PMC6999911, “New 2-Ethylthio-4-methylaminoquinazoline derivatives inhibiting two subunits of cytochrome bc1 in Mycobacterium tuberculosis” (PLoS Pathogens, 2020).

Some test systems named below: H37Rv-Rv1777(R145S); QuinR mutant strains; M. tb H37Rv ΔcydKO A317V.
Common to all, as to assay type: cell-based, Mycobacterium tuberculosis
Assay [1] concerns QuinR-M1 (QcrA Leu356Val).
The subject of assay [2] is QuinR-M3 (QcrB Gly175Ser).
For assay [3], the system named is QuinR-M2 (QcrB Trp312Gly).
The test system of assay [4] is complemented mutant (ΔcydAB).

Where only a bound is given, the exact number is not on record here.

Turning to `Cc1c(OCC(F)(F)F)ccnc1CSc1nc2ccccc2[nH]1` [LPZs, lansoprazole sulfide, reference compound], in assay [1], the “fold-change MIC compared to H37Rv (QuinR-M1)” value (shortened to “fold-change MIC … (QuinR-M1)”) was above 71 fold-change. Further, in assay [2], the “fold-change MIC compared to H37Rv (QuinR-M3)” value (shortened to “fold-change MIC … (QuinR-M3)”) amounted to 1 fold-change. The “fold-change MIC compared to H37Rv (QuinR-M2)” value (shortened to “fold-change MIC … (QuinR-M2)”) in assay [3] is given as above 71 fold-change.

Turning to `CCNc1nc(SCC)nc2ccccc12` [Compound 11626142], the “fold-change MIC … (QuinR-M1)” value in assay [1] is recorded as 39 fold-change. In the assay on H37Rv-Rv1777(R145S), the “fold change in the MIC, H37Rv-Rv1777(R145S)” value (shortened to “fold change in the MIC”) is reported as at most 3 fold. Further, in assay [2], the “fold-change MIC … (QuinR-M3)” value turned out to be 34 fold-change. For the same compound, the “fold-change MIC … (QuinR-M2)” value in assay [3] worked out at 1111 fold-change.

For `CCSc1nc(NC)c2ccc(F)c(F)c2n1` [Compound 11726148], the “fold-change MIC … (QuinR-M1)” value in assay [1] came out at 100 fold-change. Further, in assay [2], the “fold-change MIC … (QuinR-M3)” value worked out at 142 fold-change. The “fold-change MIC … (QuinR-M2)” value in assay [3] is given as 224 fold-change.

For `CCSc1nc(NC)c2ccccc2n1` [Compound 11626141], the “fold-change MIC … (QuinR-M1)” value in assay [1] is recorded as 59 fold-change. For the same compound, the “fold change in the MIC” value in the assay on H37Rv-Rv1777(R145S) is at most 3 fold. In addition, the “fold-change MIC … (QuinR-M3)” value in assay [2] was determined as 92 fold-change. For the same compound, in assay [3], the “fold-change MIC … (QuinR-M2)” value is 1489 fold-change.

On to `CCSc1nc(NC)c2cccc(F)c2n1` [Compound 11626252], for which the “ATP depletion in QuinR mutants” value in the assay with QuinR mutant strains is given as “low-level ATP depletion”. In assay [1], the “fold-change MIC … (QuinR-M1)” value amounted to 25 fold-change. In addition, the “static or cidal activity by CFU enumeration” value in assay [4] is given as “bacteriostatic effect is restored”. Besides, in the assay on H37Rv-Rv1777(R145S), the “fold change in the MIC” value is given as at most 3 fold. In addition, the “fold-change MIC … (QuinR-M3)” value in assay [2] is listed as 61 fold-change. For the same compound, the “basal respiration after compound addition” value with M. tb H37Rv ΔcydKO A317V was “did not cause a deviation in basal respiration”. In assay [3], the “fold-change MIC … (QuinR-M2)” value worked out at 1470 fold-change.

Consider `CCc1nc2ccc(Cl)cn2c1C(=O)NCc1ccc(N2CCC(c3ccc(OC(F)(F)F)cc3)CC2)cc1` [Compound Q203, Telacebec, reference compound], for which the “ATP depletion in QuinR mutants” value with QuinR mutant strains is “Significant ATP depletion”. Further, in assay [1], the “fold-change MIC … (QuinR-M1)” value is 669 fold-change. The “fold-change MIC … (QuinR-M3)” value in assay [2] is given as 191 fold-change. Also, the “fold-change MIC … (QuinR-M2)” value in assay [3] came out at 742 fold-change.

Consider `COc1nc2ccc(Br)cc2cc1[C@@H](c1ccccc1)[C@@](O)(CCN(C)C)c1cccc2ccccc12` [BDQ], for which the “ATP depletion in QuinR mutants” value in the assay on QuinR mutant strains is “Significant ATP depletion”.
